A value given as a limit tells only on which side of the number the result lay.

One data set has as its target T1, OX1 (Homo sapiens, UniProt O43613).
T1 construct: expressed in transfected cells; host or cells: CHO (CHO-OX1, kept under selection antibiotic)
T1 sequence (O43613 1-425): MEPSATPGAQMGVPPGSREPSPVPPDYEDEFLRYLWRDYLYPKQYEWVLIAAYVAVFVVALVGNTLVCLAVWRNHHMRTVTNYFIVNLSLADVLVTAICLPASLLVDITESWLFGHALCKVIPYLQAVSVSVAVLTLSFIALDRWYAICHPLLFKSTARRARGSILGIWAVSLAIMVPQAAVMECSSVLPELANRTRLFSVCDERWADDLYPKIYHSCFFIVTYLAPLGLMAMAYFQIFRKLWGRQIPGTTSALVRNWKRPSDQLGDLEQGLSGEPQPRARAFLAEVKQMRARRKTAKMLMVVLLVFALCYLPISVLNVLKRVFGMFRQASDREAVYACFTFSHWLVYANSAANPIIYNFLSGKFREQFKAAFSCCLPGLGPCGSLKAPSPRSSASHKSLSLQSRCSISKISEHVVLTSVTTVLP
Put plainly: Orexin receptor cell-based functional assay, [Ca2+]i by FLIPR, CHO-OX1 cells. The settings on record: CHO-OX1 cells, [Ca2+]i by FLIPR, antagonist dose-range 0.1 nM-10 μM, EC90 of OXA; read-out: OX1. An outline of the steps:
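CHO cells expressing human OX1 or OX2 loaded with calcium dye plus 2.5 mM probenecid at 37° C (calcium4, 30 min, or calcium6, 2 h), then exposed to compounds (0.1 nM-10 μM) for 30 min. Intracellular Ca2+ measured on FLIPR; antagonist format.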

Another data set deals with T2, CYP3A4 (Homo sapiens, UniProt P08684).
T2 construct: pre-incubated with human liver microsomes and NADPH; from tissue; host or cells: human liver microsomes
Put plainly: Cytochrome P450 inhibition assay (midazolam hydroxylation). The class given is in vitro ADME. The settings on record: human, human liver microsomes, probe midazolam (hydroxylation to 1′-hydroxymidazolam), 10 μM test compound, midazolam at approximately its Km. In short, it runs like this:
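Human liver microsomes; CYP3A4 activity as midazolam 1′-hydroxylation with substrate near Km, with or without 10 μM test compound, read as percent inhibition. For time-dependent inhibition, parallel samples were preincubated 30 min with NADPH before substrate, and percent inhibition compared with non-preincubated samples.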

T2 sequence (P08684 whole entry): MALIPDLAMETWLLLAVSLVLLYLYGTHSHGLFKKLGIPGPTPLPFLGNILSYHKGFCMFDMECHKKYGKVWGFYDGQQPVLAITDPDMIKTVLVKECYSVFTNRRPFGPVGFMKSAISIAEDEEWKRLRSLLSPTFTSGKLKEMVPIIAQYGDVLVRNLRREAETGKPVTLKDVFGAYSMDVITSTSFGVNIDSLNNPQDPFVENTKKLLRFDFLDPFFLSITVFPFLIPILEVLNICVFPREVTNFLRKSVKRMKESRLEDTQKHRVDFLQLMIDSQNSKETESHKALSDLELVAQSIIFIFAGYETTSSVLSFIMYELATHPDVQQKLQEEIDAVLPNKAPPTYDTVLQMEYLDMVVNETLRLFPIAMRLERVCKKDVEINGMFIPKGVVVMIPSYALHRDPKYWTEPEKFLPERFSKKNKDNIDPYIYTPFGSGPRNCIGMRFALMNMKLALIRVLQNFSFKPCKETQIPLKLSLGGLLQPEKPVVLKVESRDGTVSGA

Broadly, the inhibition is the percentage by which the read-out fell short of the control. As to `Cc1ccc(-n2cccn2)c(C(=O)N2CCC[C@@H](C)[C@H]2CNc2ccc(C#N)nn2)c1` [Example A156, 6-((((2S,3R)-3-Methyl-1-(5-methyl-2-(1H-pyrazol-1-yl)benzoyl)piperidin-2-yl)methyl)amino)pyridazine-3-carbonitrile], the IC50 on OX1 was greater than 1000 nM. On CYP3A4, this molecule had an inhibition at 10 µM of 53%.
`Cc1ccc(-c2ncccn2)c(C(=O)N2CCC[C@@H](C)[C@H]2CNc2ccc(Cl)cn2)n1` [Example A186, ((2S,3R)-2-(((5-chloropyridin-2-yl)amino)methyl)-3-methylpiperidin-1-yl)(6-methyl-3-(pyrimidin-2-yl)pyridin-2-yl)methanone]: the IC50 on OX1 came to 5 nM. At 10 µM the inhibition on CYP3A4 was 53%.
As to `Cc1ccc(-c2ccc(C(F)(F)F)cn2)c(C(=O)N2CCC[C@@H](C)[C@H]2CNc2ccc(Cl)cn2)c1` [Example A158, ((2S,3R)-2-(((5-Chloropyridin-2-yl)amino)methyl)-3-methylpiperidin-1-yl)(5-methyl-2-(5-(trifluoromethyl)pyridin-2-yl)phenyl)methanone], the IC50 on OX1 is 220 nM. The inhibition at 10 µM against CYP3A4 turned out to be 83%.
As for `C[C@@H]1CCCN(C(=O)c2cc(F)c(F)cc2-c2ncccn2)[C@@H]1CNc1ncc(C(F)(F)F)cn1` [Example A243, (4,5-Difluoro-2-(pyrimidin-2-yl)phenyl)((2S,3R)-3-methyl-2-(((5-(trifluoromethyl)pyrimidin-2-yl)amino)methyl)piperidin-1-yl)methanone], the IC50 on OX1 was determined as 75 nM. At 10 µM the inhibition at CYP3A4 was 68%.
Turning to `Cc1ccc(-c2ccccn2)c(C(=O)N2CCC[C@@H](C)[C@H]2CNc2ccc(C(F)(F)F)nn2)c1` [Example A150, ((2S,3R)-3-Methyl-2-(((6-(trifluoromethyl)pyridazin-3-yl)amino)methyl)piperidin-1-yl) (5-methyl-2-(pyridin-2-yl)phenyl)methanone], the IC50 at OX1 was found to be 130 nM. Besides, the inhibition at 10 µM at CYP3A4 came out at 74%.
For `Cc1ccc(-n2nccn2)c(C(=O)N2CCC[C@@H](C)[C@H]2CNc2ccc(C)nn2)c1` [Example A146, ((2S,3R)-3-Methyl-2-(((6-methylpyridazin-3-yl)amino)methyl)piperidin-1-yl)(5-methyl-2-(2H-1,2,3-triazol-2-yl)phenyl)methanone] the same measures were greater than 1000 nM and 29%.
Regarding `Cc1ccc(-n2nccn2)c(C(=O)N2CCC[C@@H](C)[C@H]2CNc2ncccc2C)c1` [Example A99, ((2S,3R)-3-Methyl-2-(((3-methylpyridin-2-yl)amino)methyl)piperidin-1-yl)(5-methyl-2-(2H-1,2,3-triazol-2-yl)phenyl)methanone], the IC50 at OX1 amounted to 340 nM. Also, the inhibition at 10 µM against CYP3A4 worked out at 52%.
Take `Cc1ccc(-n2nccn2)c(C(=O)N2CCC[C@@H](C)[C@H]2CNc2ccc(C#N)cn2)c1` [Example A127, 6-((((2S,3R)-3-Methyl-1-(5-methyl-2-(2H-1,2,3-triazol-2-yl)benzoyl)piperidin-2-yl)methyl)amino)nicotinonitrile]: the IC50 on OX1 worked out at 5 nM. On CYP3A4, this molecule had an inhibition at 10 µM of 57%.
For the molecule `Cc1ccc(-c2ccccn2)c(C(=O)N2CCC[C@@H](C)[C@H]2CNc2ncc(C(F)(F)F)cn2)c1` [Example A152, ((2S,3R)-3-Methyl-2-(((5-(trifluoromethyl)pyrimidin-2-yl)amino)methyl)piperidin-1-yl) (5-methyl-2-(pyridin-2-yl)phenyl)methanone], on OX1, the IC50 was found to be 4 nM. Moreover, the inhibition at 10 µM at CYP3A4 worked out at 86%.
For `Cc1ccc(-c2ccccn2)c(C(=O)N2CCC[C@@H](C)[C@H]2CNc2ccc(C#N)cn2)c1` [Example A60, 6-((((2S,3R)-3-Methyl-1-(5-methyl-2-(pyridin-2-yl)benzoyl)piperidin-2-yl)methyl)amino)nicotinonitrile], the IC50 on OX1 was found to be 490 nM. This molecule also gave an inhibition at 10 µM against CYP3A4 of 69%.

The values are drawn from US9440982B2 (Eolas Therapeutics, Inc., priority 2012, dated 2016).
